From patent US11179424B2, “Hyaluronic acid production promoting agent” (Pharma Foods International Co., Ltd., priority 2015, dated 2021)

Tests used:
[1] = system: mouse chondrogenic cell line ATDC5; assay: Cartilage matrix production by chondrogenic cells, Alcian blue (Test Example 6); format: cell-based; conditions: 500 μM, insulin 0.1 μg/mL, 14 days, FIG. 19
Method: The mouse chondrogenic cell line ATDC5 (RIKEN BRC No. RCB0565) was cultured until subconfluence at 37° C. in an atmosphere of 5 vol % CO2 and 95 vol % air in DMEM/F-12 medium supplemented with 5% (w/w) FBS, 1% (w/w) penicillin-streptomycin solution, 5 μg/mL transferrin, and 3×10^−8M sodium selenite. The cells were collected by trypsin treatment. The collected cells were suspended in fresh DMEM/F-12 medium with the same supplements as above to give a cell suspension (50×10^4 cells/mL). The cell suspension was spot-seeded at a volume of 20 μL in each well of a 24-well plate, and the cells were precultured at 37° C. in an atmosphere of 5 vol % CO2 and 95 vol % air for 3 hours. The medium in each well was replaced with fresh DMEM/F-12 medium containing the same supplements as above and the Phe-Hyp dipeptide (at a final concentration of 500 μM) and insulin (at a final concentration of 0.1 μg/mL), and the cells were cultured for 14 days. The cartilage matrix produced by the chondrogenic cells was stained with Alcian blue staining solution, the stained cartilage matrix was quantified with Image J (National Institutes of Health), and the results were evaluated. The amount of the cartilage matrix produced by the chondrogenic cells in the sample addition group was expressed in terms of a relative value, with the amount of the cartilage matrix in the no sample group taken as 100.

SOX9 mRNA in ATDC5 = assay: Cartilage differentiation-related gene expression in chondrogenic cells: SOX9 (Test Example 7); format: cell-based, mouse; conditions: 500 μM, insulin 0.1 μg/mL, 3 days, normalized to GAPDH, FIG. 20
Method: (§1) The mouse chondrogenic cell line ATDC5 (RIKEN BRC No. RCB0565) was cultured until subconfluence at 37° C. in an atmosphere of 5 vol % CO2 and 95 vol % air in DMEM/F-12 medium supplemented with 5% (w/w) FBS, 1% (w/w) penicillin-streptomycin solution, 5 μg/mL transferrin, and 3×10^−8 M sodium selenite. The cells were collected by trypsin treatment. The collected cells were suspended in fresh DMEM/F-12 medium with the same supplements as above to give a cell suspension (10×10^4 cells/mL). The cell suspension was seeded at a volume of 500 μL in each well of a 24-well plate, and the cells were precultured at 37° C. in an atmosphere of 5 vol % CO2 and 95 vol % air for 2 days. The medium in each well was replaced with fresh DMEM/F-12 medium containing the same supplements as above and the Phe-Hyp dipeptide (at a final concentration of 500 μM) and insulin (at a final concentration of 0.1 μg/mL), and the cells were cultured for 3 days. As a positive control, 10 μg/mL insulin was used. At end of culture, total RNA extraction and cDNA synthesis were performed, the relative mRNA expression levels of cartilage differentiation-related genes were quantified by real-time PCR and were normalized to the GAPDH mRNA expression level, and the results were evaluated. […]

Acan mRNA in ATDC5 = assay: Cartilage differentiation-related gene expression in chondrogenic cells: Acan (Test Example 7); format: cell-based, mouse; conditions: 500 μM, insulin 0.1 μg/mL, 3 days, normalized to GAPDH, FIG. 21
Method: as §1

Col X mRNA in ATDC5 = assay: Cartilage differentiation-related gene expression in chondrogenic cells: Col X (Test Example 7); format: cell-based, mouse; conditions: 500 μM, insulin 0.1 μg/mL, 3 days, normalized to GAPDH, FIG. 22
Method: as §1

has2 mRNA in ATDC5 = assay: Cartilage differentiation-related gene expression in chondrogenic cells: has2 (Test Example 7); format: cell-based, mouse; conditions: 500 μM, insulin 0.1 μg/mL, 3 days, normalized to GAPDH, FIG. 23
Method: as §1

[2] = system: ex vivo mouse knee joints; assay: Ex vivo hyaluronic acid production in knee joints of mice (Test Example 8); conditions: 1 mg/mL, one day incubation, ELISA, FIG. 24
Method: DMEM/F-12 medium supplemented with 1 mg/mL Phe-Hyp dipeptide, 5% (w/w) FBS, 1% (w/w) penicillin-streptomycin solution, 5 μg/mL transferrin, and 3×10^−8 M sodium selenite was added to each well of a 24-well plate at a volume of 1 mL per well. The femur and tibia were harvested from the right and left hind legs of ddY mice (female, retired). The synovial membrane was incised to expose the cartilage, and the bones were placed in each well so that only the joint was immersed in the medium. The bones were incubated at 37° C. in an atmosphere of 5 vol % CO2 and 95 vol % air for one day. At end of incubation, the supernatants were recovered and centrifuged at 1500×g at 4° C. for 30 minutes. The supernatants were recovered, the amount of hyaluronic acid was measured by ELISA and the results were evaluated. The amount of the hyaluronic acid in the sample addition group was expressed in terms of a relative value, with the amount of hyaluronic acid in the no sample group taken as 100.

N[C@@H](Cc1ccccc1)C(=O)N1CC(O)C[C@H]1C(=O)O (stereo partly drawn) [Phe-Hyp dipeptide, phenylalanyl-4-hydroxyproline]
cartilage matrix production by chondrogenic cells (Alcian blue) [1]: promoted cartilage matrix production
SOX9 mRNA expression level (SOX9 mRNA in ATDC5): enhanced the expression
Acan mRNA expression level (Acan mRNA in ATDC5): enhanced the expression
Col X mRNA expression level (Col X mRNA in ATDC5): enhanced the expression
has2 mRNA expression level (has2 mRNA in ATDC5): enhanced the expression
amount of hyaluronic acid produced in ex vivo mouse knee joints [2]: promoted ex vivo hyaluronic acid production
